Values joined by “and” are separate entries in the source; they are usually repeats but may differ in a detail not shown here. Equal entries are not always repeated.
What was measured:
LXRβ full length (FL) = molecular target: T1, LXRβ full length (FL) (Homo sapiens, UniProt P55055, INS174Q); test: LXR Gal4 reporter transient transfection assay, mammalian two-hybrid, FL-M2H Gal4β; assay type: cell-based; settings: HEK293 cells; inverse agonist unless *
T1 construct: the full length (FL) proteins of LXRα (amino acids 1-447); NP005684; NP009052; expressed in transfected cells; host or cells: HEK293
T1 sequence (P55055 with tags, fused parts or gaps INS174Q): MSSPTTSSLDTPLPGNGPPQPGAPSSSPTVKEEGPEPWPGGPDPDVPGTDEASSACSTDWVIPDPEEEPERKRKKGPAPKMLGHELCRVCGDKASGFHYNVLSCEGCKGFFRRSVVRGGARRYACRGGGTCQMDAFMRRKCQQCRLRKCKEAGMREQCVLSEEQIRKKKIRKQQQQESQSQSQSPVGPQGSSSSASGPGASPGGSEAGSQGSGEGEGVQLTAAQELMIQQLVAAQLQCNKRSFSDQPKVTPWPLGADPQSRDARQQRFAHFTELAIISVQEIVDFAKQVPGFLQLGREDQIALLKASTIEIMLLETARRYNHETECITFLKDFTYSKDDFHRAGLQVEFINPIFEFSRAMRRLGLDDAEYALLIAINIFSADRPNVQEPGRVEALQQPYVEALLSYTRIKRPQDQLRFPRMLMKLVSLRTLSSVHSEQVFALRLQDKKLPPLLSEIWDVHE
Method: (§1) The tested compounds were usually dissolved, tested and stored as 20 mM stock solutions in DMSO. Since sulfonyl acetic acid derivatives tend to decarboxylate under these conditions, these stock solutions were prepared, tested and stored as 20 mM DMSO stock solutions containing 100 mM trifluoroacetic acid (5 equivalents). Sulfonyl acetic acid derivatives are shelf stable as solid at rt for long time as reported by Griesbrecht et al. (Synlett 2010:374) or Faucher et al. (J. Med. Chem. 2004; 47:18).
(§2) LXR Gal4 Reporter Transient Transfection Assays
(§3) LXRα and LXRβ activity status was determined via detection of interaction with coactivator and corepressor proteins in mammalian two-hybrid experiments (M2H). For this, via transient transfection the full length (FL) proteins of LXRα (amino acids 1-447; NP005684; SEQ ID NO:1) or LXRβ-(amino acids 1-461; NP009052; SEQ ID NO:2) or the ligand-binding domains (LBD) of LXRα (amino acids 155-447 SEQ ID NO:3) or LXR (amino acids 156-461; SEQ ID NO:4) were expressed from pCMV-AD (Stratagene) as fusions to the transcriptional activation domain of NFkB. As cofactors, domains of either the steroid receptor coactivator 1 (SRC1; amino acids 552-887; SEQ ID NO:5) or of the corepressor NCoR (amino acids 1906-2312; NP006302; SEQ ID NO:6) were expressed as fusions to the DNA binding domain of the yeast transcription factor GAL4 (from pCMV-BD; Stratagene). Interaction was monitored via activation of a coexpressed Firefly Luciferase Reporter gene under control of a promoter containing repetitive GAL4 response elements (vector pFRLuc; Stratagene). Transfection efficiency was controlled via cotransfection of constitutively active pRL-CMV Renilla reniformis luciferase reporter (Promega). HEK293 cells were grown in minimum essential medium (MEM) with 2 mM L-glutamine and Earle's balanced salt solution supplemented with 8.3% fetal bovine serum, 0.1 mM non-essential amino acids, 1 mM sodium pyruvate, at 37° C. in 5% CO2. 3.5×10^4 cells/well were plated in 96-well cell culture plates in growth medium supplemented with 8.3% fetal bovine serum for 16-20 h to—90% confluency. For transfection, medium was taken off and LXR and cofactor expressing plasmids as well as the reporter plasmids are added in 30 μL OPTIMEM/well including polyethylene-imine (PEI) as vehicle. Typical amounts of plasmids transfected/well: pCMV-AD-LXR (5 ng), pCMV-BD-cofactor (5 ng), pFR-Luc (100 ng), pRL-CMV (0.5 ng). Compound stocks were prepared in DMSO, prediluted in MEM to a total volume of 120 μL, and added 4 h after addition of the transfection mixture (final vehicle concentration not exceeding 0.2%). Cells were incubated for additional 16 h, lysed for 10 min in 1×Passive Lysis Buffer (Promega) and Firefly and Renilla luciferase activities were measured sequentially in the same cell extract using buffers containing D-luciferine and coelenterazine, respectively. Measurements of luminescence were done in a BMG-luminometer.

[1] = molecular target: T2, GST-LXRβ ligand-binding domain (Homo sapiens, UniProt P55055, INS174Q); test: TR-FRETβ activity assay (NCoA3 coactivator peptide recruitment); assay type: biochemical; settings: 1 μM 24(S)-25-epoxycholesterol as prestimulating agonist; inverse agonist unless *
T2 construct: amino acids 156-461; NP009052; made in house; host or cells: E. coli
T2 sequence (P55055 with tags, fused parts or gaps INS174Q limits assumed): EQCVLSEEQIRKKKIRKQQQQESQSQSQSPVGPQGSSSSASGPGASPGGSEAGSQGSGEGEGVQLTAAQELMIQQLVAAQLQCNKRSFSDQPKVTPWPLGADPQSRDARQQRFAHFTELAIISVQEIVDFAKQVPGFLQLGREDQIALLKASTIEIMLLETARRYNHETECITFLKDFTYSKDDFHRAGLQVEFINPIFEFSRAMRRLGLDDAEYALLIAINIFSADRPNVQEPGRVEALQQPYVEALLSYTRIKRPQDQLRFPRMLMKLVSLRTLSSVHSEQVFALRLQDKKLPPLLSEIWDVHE
Method: The tested compounds were usually dissolved, tested and stored as 20 mM stock solutions in DMSO. […] Sulfonyl acetic acid derivatives are shelf stable as solid at rt for long time as reported by Griesbrecht et al. (Synlett 2010:374) or Faucher et al. (J. Med. Chem. 2004; 47:18). TR-FRETβ Activity Assay Recombinant GST-LXRβ ligand-binding domain (LBD; amino acids 156-461; NP009052; SEQ ID NO:4) was expressed in E. coli and purified via gluthatione-sepharose affinity chromatography. N-terminally biotinylated NCoA3 coactivator peptide (SEQ ID NO:7) was chemically synthesized (Eurogentec). […] Finally, a detection mix was added containing anti GST-Tb cryptate (CisBio; 610SAXLB) and Streptavidin-XL665 (CisBio; 610SAXLB) as fluorescent donor and acceptor, respectively, as well as the coactivator peptide and LXRβ-LBD protein (SEQ ID NO:4). The reaction was mixed thoroughly, equilibrated for 1 h at 4° C. and vicinity of LXRβ and coactivator peptide was detected by measurement of fluorescence in a VictorX4 multiplate reader (PerkinElmer Life Science) using 340 nm as excitation and 615 and 665 nm as emission wavelengths. Assays were performed in triplicates. Final Assay Concentrations of Components: 240 mM KCl, 1 μg/μL BSA, 0.002% Triton-X-100, 125 pg/μL anti GST-Tb cryptate, 2.5 ng/μL Streptavidin-XL665, coactivator peptide (400 nM), LXRP protein ([…], i.e. 76 nM).

LXRα full length (FL) = molecular target: T3, LXRα full length (FL) (Homo sapiens, UniProt Q13133); test: LXR Gal4 reporter transient transfection assay, mammalian two-hybrid, FL-M2H Gal4α; assay type: cell-based; settings: HEK293 cells; inverse agonist unless *
T3 construct: the full length (FL) proteins of LXRα (amino acids 1-447); NP005684; expressed in transfected cells; host or cells: HEK293
T3 sequence (Q13133 1-447): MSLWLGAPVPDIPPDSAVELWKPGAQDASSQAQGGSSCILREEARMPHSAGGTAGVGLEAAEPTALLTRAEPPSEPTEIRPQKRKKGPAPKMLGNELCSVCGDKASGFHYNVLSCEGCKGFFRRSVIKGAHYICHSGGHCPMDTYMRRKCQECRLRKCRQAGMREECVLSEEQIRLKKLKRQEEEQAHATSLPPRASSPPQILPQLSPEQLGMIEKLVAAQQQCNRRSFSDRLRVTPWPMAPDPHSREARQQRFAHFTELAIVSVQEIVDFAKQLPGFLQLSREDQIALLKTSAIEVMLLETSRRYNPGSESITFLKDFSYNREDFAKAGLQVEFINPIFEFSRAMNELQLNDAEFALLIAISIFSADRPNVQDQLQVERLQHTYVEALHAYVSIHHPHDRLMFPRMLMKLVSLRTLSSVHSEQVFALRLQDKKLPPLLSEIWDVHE
Method: as §1, §2, §3

Row | SMILES | EC50 (LXRβ full length (FL)) | EC50 [1] [µM] | EC50 (LXRα full length (FL)) [µM] | FRETβ [1]
1 | Cc1ccc2ccccc2c1C(=O)N(Cc1ccc(C(F)(F)F)o1)Cc1ccc(-c2cccc(C(C)(C)C(=O)O)c2)nc1N [27/91] | < 0.1 µM | 1 to 10 | 0.1 to 1 | –
2 | CC(C)(C(=O)O)c1cccc(-c2ccc(CN(Cc3ccc(C(F)(F)F)o3)C(=O)c3cccc4cnncc34)cc2)c1 [27/14] | 0.1 to 1 µM | 0.1 to 1 | 1 to 10 | –
3 | Cc1c(C(=O)N(Cc2ccc(-c3cccc(C(C)(C)C(=O)O)c3)cc2)Cc2ccc(C(F)(F)F)o2)c2ccccc2n(C)c1=O [27/94] | < 0.1 µM | 0.1 to 1 | < 0.1 | –
4 | Cc1ccc2ccccc2c1C(=O)N(Cc1ccc(-c2cccc(C(C)(C)CC(=O)O)c2)cc1)Cc1ccc(C(F)(F)F)o1 [27/9] | < 0.1 µM | 0.1 to 1 | < 0.1 | –
5 | Cc1nc2cccnc2c(C(=O)N(Cc2ccc(C(F)(F)F)o2)Cc2ccc(-c3cccc(C(C)(C)C(=O)O)c3)cc2F)c1C [27/114] | < 0.1 µM | 0.1 to 1 | < 0.1 | –
6 | CC1=C(C(=O)N(Cc2ccc(-c3cccc(C(C)(C)C(=O)O)c3)cc2)Cc2ccc(C(F)(F)F)o2)c2ccccc2CC1 [27/95] | < 0.1 µM | < 0.1 | < 0.1 | –
7 | COc1cc(-c2cc(F)c(CO)c(S(=O)(=O)CC(=O)O)c2)ccc1CN(Cc1ccc(C(F)(F)F)o1)Cc1c(C)cc(C)cc1C [22/10] | 0.1 to 1 µM | 1 to 10 | 1 to 10 | –
8 | CC12CC3(C)CC(C)(C1)CC(C(=O)N(Cc1ccc(-c4cccc(C(C)(C)C(=O)O)c4)cc1)Cc1ccc(C(F)(F)F)o1)(C2)C3 [27/51] | 0.1 to 1 µM | – | 0.1 to 1 | B*
9 | COCc1c(C)cc(C)c(C(=O)N(Cc2ccc(-c3cccc(C(C)(C)C(=O)O)c3)cc2)Cc2ccc(C(F)(F)F)o2)c1C [27/50] | < 0.1 µM | 0.1 to 1 | < 0.1 | –
10 | CC(C)(C(=O)O)c1cccc(-c2ccc(CN(Cc3ccc(C(F)(F)F)o3)C(=O)c3cccc4ncncc34)cc2)c1 [27/13] | < 0.1 µM | 1 to 10 | 0.1 to 1 | –
11 | COc1nc(-c2cccc(C(C)(C)C(=O)O)c2)ccc1CN(Cc1ccc(C(F)(F)F)o1)C(=O)c1c(C)ccc2ccccc12 [27/77] | < 0.1 µM | 1 to 10 | < 0.1 | –
12 | CCOC(=O)c1ccc(CN(Cc2ncc(-c3cccc(C(C)C(=O)O)c3)cc2Cl)C(=O)c2c(C)c(C)nc3ccccc23)o1 (stereo not drawn) [27/98] | 0.1 to 1 µM | 0.1 to 1 | 0.1 to 1 | –
13 | CCc1nc2cnccc2c(C(=O)N(Cc2ccc(-c3cccc(C(C)(C)C(=O)O)c3)cc2)Cc2ccc(C(F)(F)F)o2)c1C [27/88] | < 0.1 µM | 0.1 to 1 | < 0.1 | –
14 | Cc1nc2cccnc2c(C(=O)N(Cc2ccc(-c3cccc(C(C)(C)C(=O)O)c3)cc2)Cc2ccc(C#N)o2)c1C [Example 33/1] | < 0.1 µM | 0.1 to 1 | < 0.1 | –
15 | CCNC(=O)c1ccc(CN(Cc2ncc(-c3cccc(C(C)C(=O)O)c3)cc2Cl)C(=O)c2c(C)c(C)nc3ccccc23)o1 (stereo not drawn) [27/99] | 1 to 10 µM | 1 to 10 | 1 to 10 | –
16 | O=C(O)CS(=O)(=O)c1cccc(-c2ccc(CN(Cc3ccc(C(F)(F)F)o3)Cc3ccc(F)c4cccnc34)cc2)c1 [7/3] | 1 to 10 µM and 0.1 to 1 µM | – | 1 to 10 | B*
17 | CCc1nc2ccncc2c(C(=O)N(Cc2ccc(-c3cccc(C(C)(C)C(=O)O)c3)cc2)Cc2ccc(C(F)(F)F)o2)c1C [27/89] | 0.1 to 1 µM | 1 to 10 | 0.1 to 1 | –
18 | Cc1ccc2ccccc2c1C(=O)N(Cc1ccc(-c2cccc(C(C)(C)c3noc(=O)[nH]3)c2)cc1)Cc1ccc(C(F)(F)F)o1 [Example 29, 2-Methyl-N-((3′-(2-(5-oxo-4,5-dihydro-1,2,4-oxadiazol-3-yl)propan-2-yl)-[1,1′-biphenyl]-4-yl)methyl)-N-((5-(trifluoromethyl)furan-2-yl)methy)-1-naphthamide] | < 0.1 µM | 0.1 to 1 | < 0.1 | –
19 | COc1cc(-c2cccc(C(C)(C)C(=O)O)c2)ccc1CN(Cc1ccc(C(F)(F)F)o1)C(=O)c1c(C)c(C)nc2ccccc12 [27/104] | < 0.1 µM | 0.1 to 1 | < 0.1 | –
20 | Cc1ccc2ccccc2c1C(=O)N(Cc1ccc(C(F)(F)F)o1)Cc1ccc(-c2cccc(S(=O)(=O)CC(=O)O)c2)cc1Cl [27/59] | 0.1 to 1 µM | 0.1 to 1 | 0.1 to 1 | –
21 | CONC(=O)CS(=O)(=O)c1cccc(-c2ccc(CN(Cc3ccc(C(F)(F)F)o3)Cc3c(C)cc(C)cc3C)cc2)c1 [Example 5/1] | 0.1 to 1 µM | 0.1 to 1 | 0.1 to 1 | –
